In US10526580B2, “Differentiated cell population of endothelial cells derived from human pluripotent stem cells, composition, system, kit and uses thereof” (BIOCANT-ASSOCIAÇÃO DE TRANSFERÊNCIA DE TECNOLOGIA, priority 2012, dated 2020):
Structures can show the parent of a compound that is named as a salt.

System: hESC-derived ECs versus ACL cells
Assay: High-throughput screening of LOPAC library, PrestoBlue cell viability, hESC-derived ECs versus ACL cells
Format: cell-based, human
Settings: not given
Experimental: High-throughput screening (HTS). HUAECS (Lonza) and hESC-derived ECs were cultured in EGM-2 medium while human anterior cruciate ligament cells (ACL cells) were cultured in Dulbecco's modified Eagle's medium (DMEM; PAA) supplemented with 10% FBS, 0.2 mM ascorbic acid 2-phosphate magnesium salt (Sigma Aldrich), […] streptomycin and 100 U/mL penicillin (Life Technologies). ACL cells were isolated from patients that have signed an informed consent form, in compliance with the Dutch legislation. The ethical committee of Medisch Spectrum Twente Hospital approved the collection.
The LOPAC library (Sigma-Aldrich) was used to screen embryonic endothelial-specific cytotoxic compounds. The compounds were solubilized in DMSO. The final compound concentration used in the screen was 4.5 μM in a final volume of 200 μL per well (96-well plate). HUAECs, hESC-derived EC and ACL cells were seeded at 16,000 cells/well (HUAECs and hESC-derived ECs) and 5,000 cells/well (ACL cells) and allowed to reach near confluence (approximately two days). After two days, medium was exchanged and test compounds and controls were added to the 96-well plates (all wells contained 0.25% (v/v) DMSO). After 4 days of incubation, cell viability was assessed using a PrestoBlue (Invitrogen) assay. This assay is based on a resazurin-based solution that indicates the reducing power of living cells and therefore measures indirectly their number. For each measurement, cell medium was removed and the PrestoBlue solution (10%) was added for 3 h at 37° C. upon which the absorbance was measured at 560-590 nm.
Disruption of vascular development has been directly correlated with prenatal loss, malformations and neurodevelopmental problems^41-44. […] The library was screened at a single dosage of 4.5 μM in a volume of 200 μL per well of EGM-2 medium, containing 0.25% DMSO (v/v). […] Six compounds (danazol, chlorpromazine hydrochloride, ellipticine, 3′,4′-dichlorobenzamil, fluphenazine dihydrochloride and 7-cyclopentyl-5-(4-phenoxy)phenyl-7H-pyrrolo[2,3-d]pyrimidin-4-ylamine) affected cell viability in both cells by a difference of 20% (FIG. 4B). The six compounds belong to different classes: cell cycle, ion pumps, dopamine pathway, phosphorylation and hormone signaling. The compounds selected from the primary screen were then tested against hESC-derived ECs and HUAECs at eight different concentrations to obtain a dose-response curve (FIG. 4C and FIG. 14).

| Compound | Differences (%) in cell viability (hESC-Derived ECs versus ACL cells) [%] |
| --- | --- |
| N#CC(=C(/N)Sc1ccccc1N)/C(C#N)=C(\N)Sc1ccccc1N [U0126] | 68.9 |

Same assay, conditions: LOPAC screen, 4.5 μM, 4 days of incubation, PrestoBlue assay

| Compound | Differences (%) in cell viability (hESC-Derived ECs versus ACL cells) [%] |
| --- | --- |
| CS(=O)(=O)O.Cc1c(C(=O)c2cccc3ccccc23)c2cccc3c2n1[C@H](CN1CCOCC1)CO3 [(R)-(+)-WIN 55,212-2 mesylate] | 97.7 |
| CC(/C=C/c1cccc(Oc2ccc(F)cc2)c1)N(O)C(N)=O (stereo not shown) [BWB70C] | 55.3 |
| CC[C@H](C)C(=O)O[C@H]1CCC=C2C=C[C@H](C)[C@H](CC[C@@H]3C[C@@H](O)CC(=O)O3)[C@H]21 [Mevastatin] | 98.0 |
| CCCN1CCC[C@@H](c2cccc(O)c2)C1.Cl [S(−)-3PPP hydrochloride] | 51.8 |
| Vinblastine sulfate salt | 92.8 |
| COc1cc([C@@H]2c3cc4c(cc3[C@@H](O[C@@H]3O[C@@H]5CO[C@@H](C)O[C@H]5[C@H](O)[C@H]3O)[C@H]3COC(=O)[C@H]23)OCO4)cc(OC)c1O [Etoposide] | 59.6 |
| C=CCc1ccccc1OCC(O)CNC1(C)CCC(C(C)(C)NC(=O)CBr)CC1 (stereo not shown) [Bromoacetyl alprenolol menthane] | 93.4 |
| CN(C)S(=O)(=O)c1ccc2c(c1)/C(=C/c1cc3c([nH]1)CCCC3)C(=O)N2 [SU 6656] | 61.5 |
| COc1cc2c(cc1OC)-c1c/c(=N\c3c(C)cc(C)cc3C)n(C)c(=O)n1CC2 [Trequinsin hydrochloride] | 50.7 |
| CCn1c(=O)[nH]c2cc(Cl)c(Cl)cc21 [DCEBIO] | 73.2 |
| COc1cc2c(c(OC)c1OC)-c1ccc(OC)c(=O)cc1[C@@H](NC(C)=O)CC2 [Colchicine] | 67.4 |
| CNc1ccc2oc(C[C@H]3O[C@@]4(CC[C@H]3C)O[C@H]([C@H](C)C(=O)c3ccc[nH]3)[C@H](C)C[C@H]4C)nc2c1C(=O)O [Calcimycin] | 96.2 |
| CC[C@@]1(O)C(=O)OCc2c1cc1n(c2=O)Cc2cc3ccccc3nc2-1 [(S)-(+)-Camptothecin] | 96.3 |
| CC(=O)O[C@H]1C(=O)[C@@]2(C)[C@H]([C@H](OC(=O)c3ccccc3)[C@]3(O)C[C@H](OC(=O)[C@H](O)[C@@H](NC(=O)c4ccccc4)c4ccccc4)C(C)=C1C3(C)C)[C@]1(OC(C)=O)CO[C@@H]1C[C@@H]2O [Taxol] | 78.1 |
| CC[C@]1(O)C[C@H]2CN(CCc3c([nH]c4ccccc34)[C@@](C(=O)OC)(c3cc4c(cc3OC)N(C=O)[C@H]3[C@@](O)(C(=O)OC)[C@H](OC(C)=O)[C@]5(CC)C=CCN6CC[C@]43[C@@H]65)C2)C1 [Vincristine sulfate] | 89.2 |
| CC(C)[C@H]1c2ccc(F)cc2CC[C@@]1(CCN(C)CCCc1nc2ccccc2[nH]1)OC(=O)C1CC1 [NNC 55-0396] | 98.4 |
| Cc1cc(N)c2ccccc2[n+]1CCCCCCCCCC[n+]1c(C)cc(N)c2ccccc21 [Dequalinium dichloride] | 60.6 |
| O=C(Nc1ccc([N+](=O)[O-])cc1Cl)c1cc(Cl)ccc1O [Niclosamide] | 97.6 |
| C/C(=C\c1ccc(C(=O)O)cc1)c1ccc2c(c1)C(C)(C)CCC2(C)C [TTNPB] | 92.6 |
| C[C@@H]1O[C@@H](O[C@H]2C[C@@H](O)[C@]3(CO)[C@H]4[C@H](O)C[C@]5(C)[C@@H]([C@@H]6COC(=O)C6)CC[C@]5(O)[C@@H]4CC[C@]3(O)C2)[C@H](O)[C@H](O)[C@H]1O [Dihydroouabain] | 97.0 |
| CN1C[C@H](CNC(=O)OCc2ccccc2)C[C@@H]2c3cccc4c3c(cn4C)C[C@H]21 [Metergoline] | 56.5 |
| COc1cc(-c2ccc(=O)[nH]n2)ccc1OC(F)F [Zardaverine] | 84.0 |
| NC(=O)OCC(COC(N)=O)c1ccccc1 [Felbamate] | 50.5 |
| CCCCCCCC/C=C\CCCCCCCC(=O)NCCc1ccc(O)c(O)c1 [N-Oleoyldopamine] | 54.8 |
| C[C@@H](NC(=O)/C(C#N)=C/c1ccc(O)c(O)c1)c1ccccc1 [Tyrphostin AG 527] | 53.4 |
| CSc1ccc2c(c1)N(CCC1CCCCN1C)c1ccccc1S2 (stereo not shown) [Thioridazine hydrochloride] | 51.6 |

| Compound | Differences (%) in cell viability (hESC-Derived ECs versus ACL cells) [%] |
| --- | --- |
| CC(=O)c1c(O)c(C)c(O)c(Cc2c(O)c3c(c(C(=O)/C=C/c4ccccc4)c2O)OC(C)(C)C=C3)c1O [Rottlerin] | 61.6 |
| CC1(C(=O)O)C2CCC(O2)C1(C)C(=O)O (stereo not shown) [Cantharidic Acid] | 93.8 |
| Ivermectin | 78.7 |
| CC(C)(C)c1cc(C=C(C#N)C#N)cc(C(C)(C)C)c1O [Tyrphostin A9] | 69.5 |
| COC(=O)Nc1nc2ccc(C(=O)c3cccs3)cc2[nH]1 [Nocodazole] | 76.4 |
| CNCC[C@@H](Oc1ccccc1C)c1ccccc1 [Tomoxetine] | 68.7 |
| N#C/C(=C\c1ccc(O)c(O)c1)C(=O)NCc1ccccc1 [Tyrphostin AG 490] | 56.3 |
| CCOC(=O)C1=C(C)NC(C)=C(C(=O)OC)C1c1cccc(Cl)c1Cl (stereo not shown) [Felodipine] | 58.1 |
| COc1cccc2c1[C@@H]1CN(CCCCn3c(=O)[nH]c4c(sc5ncc(-c6ccccc6)nc54)c3=O)C[C@@H]1CO2 [Fiduxosin hydrochloride] | 58.2 |
| O=c1[nH]c(=O)n([C@H]2C[C@H](O)[C@@H](CO)O2)cc1Br [5-Bromo-2′-deoxyuridine] | 53.9 |
| Oc1cc(-c2ccccc2)nc2nc(Cl)ccc12 [7-Chloro-4-hydroxy-2-phenyl-1,8-naphthyridine] | 59.1 |
| Cc1c(C)c2c(c(C)c1O)CCC(C)(CN1CCN(c3cc(N4CCCC4)nc(N4CCCC4)n3)CC1)O2.Cl.Cl (stereo not shown) [U-83836 dihydrochloride] | 51.3 |
| CC(Oc1ccc(Oc2cnc3ccc(Cl)cc3n2)cc1)C(=O)O (stereo not shown) [XK469] | 75.9 |
| O=C1NCN(c2ccccc2)C12CCN(CCCC(c1ccc(F)cc1)c1ccc(F)cc1)CC2 [Fluspirilene] | 86.7 |
| O=S1(=O)N(CCN2CC=C(c3c[nH]c4cc(F)ccc34)CC2)c2cccc3c2N1CCC3 [LY-367,265] | 51.1 |
| CC(C)(C)c1cc(/C=C(\C#N)C(N)=S)cc(C(C)(C)C)c1O [Tyrphostin AG 879] | 54.4 |
| N#C/C(=C\c1ccc(O)c(O)c1)C(=O)NCCCNC(=O)/C(C#N)=C/c1ccc(O)c(O)c1 [Tyrphostin AG 537] | 52.3 |
| Cc1ccc(S(=O)(=O)N[C@@H](Cc2ccccc2)C(=O)CCl)cc1 [N-p-Tosyl-L-phenylalanine chloromethyl ketone] | 63.9 |
| O=C1Nc2ccccc2/C1=C1/Nc2ccccc2/C1=N\O [Indirubin-3′-oxime] | 85.5 |
| CSc1ccc2c(c1)C(N1CCN(C)CC1)Cc1ccccc1S2 (stereo not shown) [Methiothepin mesylate] | 52.4 |
| O=C1c2c(O)ccc(O)c2C(=O)c2c(NCCNCCO)ccc(NCCNCCO)c21 [Mitoxantrone] | 94.4 |
| CC1=C(C)C(=O)C(CCCCC#CCCCC#CCO)=C(C)C1=O [AA-861] | 53.3 |
| CCN(CC)C(C)C(=O)N1c2ccccc2Sc2ccccc21.Cl (stereo not drawn) [10-(alpha-Diethylaminopropionyl)-phenothiazine hydrochloride] | 56.8 |
| O=C(O)c1ccccc1Nc1cccc(OCc2ccc3ccccc3n2)c1 [SR 2640] | 53.0 |
| COCC(=O)O[C@]1(CCN(C)CCCc2nc3ccccc3[nH]2)CCc2cc(F)ccc2[C@@H]1C(C)C [Mibefradil dihydrochloride] | 62.2 |
